Measured values published in patent US9512128B2 (BAYER CROPSCIENCE AG, priority 2012, dated 2016).
Like-named read-outs stand apart in the source and are kept apart here.

What was measured:
[1] = tested on: greenhouse red spider mite (Tetranychus urticae); test: Tetranychus urticae spray test, OP-resistant (TETRUR); assay type: in vivo; conditions: after 6 days, bean leaf discs
Procedure: 4. Tetranychus urticae Spray Test, OP-Resistant (TETRUR)
• Solvents: 78.0 parts by weight of acetone • 1.5 part by weight of dimethylformamide • Emulsifier: 0.5 part by weight of alkylaryl polyglycol ether
To produce a suitable preparation of active compound, 1 part by weight of active compound is mixed with the stated amounts of solvents and emulsifier, and the concentrate is diluted with emulsifier-containing water to the desired concentration.
Discs of bean leaves (Phaseolus vulgaris) which are infested by all stages of the greenhouse red spider mite (Tetranychus urticae) are sprayed with an active compound preparation of the desired concentration.
After 6 days, the efficacy in % is determined. 100% means that all of the spider mites have been killed; 0% means that none of the spider mites have been killed.

[2] = log P by HPLC on reversed-phase columns (C 18), EEC directive 79/831 Annex V.A8; assay type: physicochemical; conditions: for logP[a]: method [a]; for logP[b]: method [b]
Procedure: The log P values were determined according to EEC directive 79/831 Annex V.A8 by HPLC (High Performance Liquid Chromatography) on reversed-phase columns (C 18), using the methods below:
[a] The LC-MS determination in the acidic range is carried out at pH 2.7 with 0.1% aqueous formic acid and acetonitrile (contains 0.1% formic acid) as mobile phases; linear gradient from 10% acetonitrile to 95% acetonitrile.
[b] The LC-MS determination in the neutral range is carried out at pH 7.8 using the mobile phases 0.001 molar aqueous ammonium bicarbonate solution and acetonitrile; linear gradient from 10% acetonitrile to 95% acetonitrile.

[3] = reversed-phase C18 HPLC column, pH 2.7, acidic range, pH 2.7, 0.1% aqueous formic acid / acetonitrile, read-out: log P[a]
[4] = reversed-phase C18 HPLC column, pH 7.8, neutral range, pH 7.8, 0.001 molar aqueous ammonium bicarbonate / acetonitrile, read-out: log P[b]

Row | Compound | efficacy in % (spider mites killed) ([1]; application rate 500 g/ha) [%] | further results
1 | CCn1cc2c(=O)n(-c3cc(SCC(F)(F)F)c(C)cc3F)cnc2n1 [Compound 176] | 90 | 
2 | Cc1cc(C)c([S+]([O-])CC(F)(F)F)cc1-n1c(C)nc2cnn(C)c2c1=O (centres unmarked) [Compound 135] | 90 | 
3 | Cc1cc(F)c(-n2c(C)nc3nn(C)cc3c2=O)cc1SCC(F)(F)F [Compound 174] |  | efficacy in % (spider mites killed) ([1]; application rate 100 g/ha): 90%
4 | Cc1cc(F)c(-n2c(C)nc3cnn(C(C)C)c3c2=O)cc1[S+]([O-])CC(F)(F)F (centres unmarked) [Compound 166] | 100 | 
5 | Cc1cc(F)c(-n2cnc3nsc(C(C)(C)C)c3c2=O)cc1[S+]([O-])CC(F)(F)F (centres unmarked) [Compound 192] | 90 | 
6 | Cn1ncc2ncn(-c3cc([S+]([O-])CC(F)(F)F)c(Cl)cc3Cl)c(=O)c21 (centres unmarked) [Compound 143] | 100 | 
7 | Cc1nc2c(=O)n(-c3cc([S+]([O-])CC(F)(F)F)c(C)cc3C)c(C)nc2s1 (centres unmarked) [Compound 186] | 90 | 
8 | Cn1ncc2nnn(-c3cc(SCC(F)(F)F)c(Cl)cc3F)c(=O)c21 [Compound 150] | 100 | 
9 | Cc1cc(F)c(-n2nnc3cnn(C)c3c2=O)cc1SCC(F)(F)F [Compound 137] | 100 | 
10 | Cc1cc(C)c([S+]([O-])CC(F)(F)F)cc1-n1nnc2cnn(C)c2c1=O (centres unmarked) [Compound 132] | 100 | 
11 | Cc1nc2c(=O)n(-c3cc(SCC(F)(F)F)c(C)cc3F)cnc2s1 [Compound 189] | 90 | 
12 | Cc1cc(F)c(-n2c(C)nc3cnn(C)c3c2=O)cc1SCC(F)(F)F [Compound 139] | 100 | 
13 | Cc1cc2ncn(-c3cc([S+]([O-])CC(F)(F)F)c(C)cc3F)c(=O)c2o1 (centres unmarked) [Compound 222] | 100 | 
14 | Cc1cc(C)c(-n2cnc3cnn(C)c3c2=O)cc1SCC(F)(F)F [Compound 130] | 100 | 
15 | Cc1cc(F)c(-n2cnc3onc(C(F)(F)F)c3c2=O)cc1SCC(F)(F)F [Compound 197] | 100 | 
16 | Cc1cc(F)c(-n2cnc3c(C)nsc3c2=O)cc1SCC(F)(F)F [Compound 180] | 90 | 
17 | Cc1cc(Cl)c(-n2nnc3cnn(C)c3c2=O)cc1SCC(F)(F)F [Compound 154] | 90 | 
18 | Cc1cc(Cl)c(-n2cnc3cnn(C)c3c2=O)cc1SCC(F)(F)F [Compound 151] | 100 | 
19 | Cc1cc(Cl)c(-n2cnc3cnn(C)c3c2=O)cc1[S+]([O-])CC(F)(F)F (centres unmarked) [Compound 158] | 100 | 

Row | Compound | efficacy in % (spider mites killed) ([1]; application rate 500 g/ha) [%] | further results
20 | Cc1cc(F)c(-n2cnc3csc(C)c3c2=O)cc1SCC(F)(F)F [Compound 217] | 90 | 
21 | Cc1cc(F)c(-n2cnc3c(C)n(C)nc3c2=O)cc1SCC(F)(F)F [Compound 213] | 100 | 
22 | CCn1ncc2c(=O)n(-c3cc([S+]([O-])CC(F)(F)F)c(C)cc3F)c(C)nc21 (centres unmarked) [Compound 127] | 100 | 
23 | Cc1cc(F)c(-n2cnc3c(C)scc3c2=O)cc1[S+]([O-])CC(F)(F)F (centres unmarked) [Compound 220] | 90 | 
24 | Cc1cc(F)c(-n2cnc3c(C)scc3c2=O)cc1SCC(F)(F)F [Compound 219] | 100 | 
25 | Cc1cc(F)c(-n2cnc3nn(C)cc3c2=O)cc1SCC(F)(F)F [Compound 173] | 90 | 
26 | Cn1ncc2ncn(-c3cc([S+]([O-])CC(F)(F)F)c(Cl)cc3F)c(=O)c21 (centres unmarked) [Compound 156] | 100 | 
27 | Cc1cc(F)c(-n2cnc3ncn(C)c3c2=O)cc1[S+]([O-])CC(F)(F)F (centres unmarked) [Compound 178] | 100 | 
28 | Cc1ccc(-n2c(C)nc3cnn(C)c3c2=O)cc1[S+]([O-])CC(F)(F)F (centres unmarked) [Compound 145] | 100 | 
29 | Cc1cc(F)c(-n2cnc3onc(C(C)C)c3c2=O)cc1SCC(F)(F)F [Compound 193] | 100 | 
30 | Cc1cc(C)c(-n2c(C)nc3cnn(C)c3c2=O)cc1SCC(F)(F)F [Compound 131] | 90 | 
31 | Cn1ncc2ncn(-c3cc(SCC(F)(F)F)c(Cl)cc3Cl)c(=O)c21 [Compound 140] | 100 | 
32 | Cc1ccc(-n2cnc3cnn(C)c3c2=O)cc1SCC(F)(F)F [Compound 138] | 100 | 
33 | Cc1cc(C)c(-n2nnc3cnn(C)c3c2=O)cc1SCC(F)(F)F [Compound 133] | 90 | 
34 | CCc1nsc2ncn(-c3cc([S+]([O-])CC(F)(F)F)c(C)cc3F)c(=O)c12 (centres unmarked) [Compound 203] | 100 | 
35 | Cc1cc(F)c(-n2cnc3c(C)n(C)nc3c2=O)cc1[S+]([O-])CC(F)(F)F (centres unmarked) [Compound 214] | 90 | 
36 | Cc1nc2c(=O)n(-c3cc([S+]([O-])CC(F)(F)F)c(C)cc3F)c(C)nc2s1 (centres unmarked) [Compound 185] | 90 | 
37 | Cc1cc(F)c(-n2cnc3c(C)nn(C)c3c2=O)cc1SCC(F)(F)F [Compound 128] | 100 | 
38 | CCn1ncc2c(=O)n(-c3cc([S+]([O-])CC(F)(F)F)c(C)cc3F)cnc21 (centres unmarked) [Compound 126] | 90 | 

Row | Compound | efficacy in % (spider mites killed) ([1]; application rate 500 g/ha) [%] | further results
39 | Cc1cc(Cl)c(-n2c(C)nc3cnn(C)c3c2=O)cc1SCC(F)(F)F [Compound 152] | 90 | 
40 | Cc1cc(F)c(-n2cnc3csc(C)c3c2=O)cc1[S+]([O-])CC(F)(F)F (centres unmarked) [Compound 218] | 90 | 
41 | Cc1nc2cnn(C)c2c(=O)n1-c1cc(SCC(F)(F)F)c(Cl)cc1Cl [Compound 144] | 90 | 
42 | Cc1ccc(I)cc1SCC(F)(F)F [VIIa-7-I, 4-Iodo-1-methyl-2-[(2,2,2-trifluoroethyl)sulphanyl]benzene] |  | chromatographic logP [2, 3]: 4.49; chromatographic logP [2, 4]: 4.48
43 | Cc1cc(F)c(-n2cnc3cn(C)nc3c2=O)cc1[S+]([O-])CC(F)(F)F (centres unmarked) [Compound 216] | 100 | 
44 | N#Cc1ccc(-n2cnc3ccsc3c2=O)cc1SCC(F)(F)F [Compound 102] |  | logP[a] [2]: 2.37; logP[b] [2]: 2.31
45 | Cc1nc2c(=O)n(-c3cc([S+]([O-])CC(F)(F)F)c(Cl)cc3Cl)cnc2s1 (centres unmarked) [Compound 74] |  | logP[a] [2]: 2.22; logP[b] [2]: 2.17
46 | O=C(Nc1ccc(Cl)cc1F)C(F)(F)F [XIII-2, N-(4-Chloro-2-fluorophenyl)-2,2,2-trifluoroacetamide] |  | chromatographic logP ([2]; acidic range, pH 2.7, 0.1% aqueous formic acid / acetonitrile, read-out: log P[a]): 2.53; chromatographic logP ([2]; neutral range, pH 7.8, 0.001 molar aqueous ammonium bicarbonate / acetonitrile, read-out: log P[b]): 2.4
47 | Cc1ccc(-n2cnc3nn(C)c(C)c3c2=O)cc1SCC(F)(F)F [Compound 44] |  | logP[a] [2]: 2.38; logP[b] [2]: 2.33
48 | Cc1cc(F)c(-n2cnc3c(ncn3C)c2=O)cc1[S+]([O-])CC(F)(F)F (centres unmarked) [Compound 179] | 100 | 
49 | Nc1cc(SCC(F)(F)F)ccc1F [IVa-5, 2-Fluoro-5-[(2,2,2-trifluoroethyl)sulphanyl]aniline] |  | chromatographic logP [2, 3]: 2.57; chromatographic logP [2, 4]: 2.53
50 | Cc1ccc(-n2cnc3ccsc3c2=O)cc1[S+]([O-])CC(F)(F)F (centres unmarked) [Compound 101] |  | logP[a] [2]: 1.82; logP[b] [2]: 1.81
51 | Cc1nc2c(=O)n(-c3cc([S+]([O-])CC(F)(F)F)c(C)cc3F)cnc2s1 (centres unmarked) [Compound 190] | 90 | 
52 | Cc1cc(F)c(-n2cnc3c(cnn3CC(F)(F)F)c2=O)cc1SCC(F)(F)F [Compound 17] |  | logP[a] [2]: 3.31; logP[b] [2]: 3.21
53 | Cc1cc(F)c(-n2cnc3c(Cl)c(Cl)sc3c2=O)cc1[S+]([O-])CC(F)(F)F (centres unmarked) [Compound 115] |  | logP[a] [2]: 3.20; logP[b] [2]: 3.13
54 | Cn1ncc2c(=O)n(-c3ccc(C(F)(F)F)c(SCC(F)(F)F)c3)cnc21 [Compound 25] |  | logP[a] [2]: 2.82; logP[b] [2]: 2.75
55 | Cc1ccc(Br)cc1S(=O)(=O)Cl [5-Bromo-2-methylbenzenesulphonyl chloride] |  | chromatographic logP [2, 3]: 3.73; chromatographic logP [2, 4]: 3.74
56 | Cc1ccc(-n2cnc3c(cnn3C)c2=O)cc1SCC(F)(F)F [Compound 8] |  | logP[a] [2]: 2.56; logP[b] [2]: 2.54
